Experimental data taken from US12528814B2, “Bifunctional degraders of interleukin-1 receptor-associated kinases and therapeutic use thereof” (NURIX THERAPEUTICS, INC., priority 2020, dated 2026).
“Also recorded” adds a separate entry of the source. Read-outs that look alike come from different tables or passages of the source.

Columns and labels:
GSPT1 = GSPT1 (Homo sapiens (Human), UniProt P15170+Q96SW2); experiment: Western Assay for GSPT1 Degradation; type: cell-based; conditions: wild-type Jurkat cells, 24 hrs
Protocol: (§1) Biological Example 4 Western Assay for IRAK4, IRAK1 and GSPT1 Degradation
(§2) DMSO was stamped into wells A12-H12 at 500 nL/well (NC, Negative Control, maximum signal). […] Following incubation, plates were centrifuged for 5 min at 1600 rpm. Media was removed and cell pellets were lysed in 50 μL lysis buffer (RIPA buffer (Fisher, PI89901), cOmplete Mini EDTA-free protease inhibitor (Sigma 11836170001), Protease Inhibitor Cocktail (Sigma, P2714), Phosphatase Inhibitor Cocktail 2 and 3 (Sigma, P5726 and P0044), Benzonase (Sigma, E1014)). Cells were lysed overnight at −20° C. Plates were centrifuged for 5 min at 1600 rpm and lysate supernatants were transferred to storage plates. Protein levels were determined by BCA Assay performed according to manufacturer's protocol (EMD Millipore, cat. no. 71285-3). Samples were combined with (4×) LDS Sample Buffer and (10×) Reducing Agent and H2O to equally load 10 ug protein per lane of a 26-well NuPAGE 4-12% Bis-Tris protein gel (1.0 mm, Thermo cat. no. NP0326). Samples were separated by running gels at constant 200 V in NuPAGE MES SDS Running Buffer. Following electrophoresis, proteins were transferred to nitrocellulose membranes using an iBlot Gel Transfer Device and iBlot Gel Transfer Stacks (Thermo cat. no. IB21001 and IB301001) and transfer method PO (20V 1 min, 23V 4 min, 25V 2 min). Membranes were blocked for 1 hr in 5% milk solution (TBS (0.2% Tween-20)).
(§3) Following blocking, membranes were incubated with primary antibody overnight at 4° C. with gentle shaking. The primary antibodies and dilutions used were as follows: IRAK4—abcam ab3200612, 1:500; IRAK1—Cell Signaling Technologies D51G7 #4504, 1:500; GSPT1—Cell Signaling Technologies #14980, 1:500). Blots were washed 3× in TBS (0.2% Tween-20), 5-10 min per wash. Following washes, blots were incubated in secondary HRP-conjugated antibody (Promega anti-Rabbit IgG (H+L) HRP, cat. no. W4011), 1:5000 in 5% milk solution (TBS (0.2% Tween-20)), for 1 hr at room temperature with gentle shaking. Blots were washed 3× in TBS (0.2% Tween-20), 5-10 min per wash. Blots were incubated with 1:1 mix of ECL reagents 1 & 2 (Amersham ECL Western Blotting Detection Reagent, cat. no. RPN2106) for 2-3 min at room temperature. Bands were visualized using a Protein Simple imager. Blots were then re-probed with a combination of anti-actin antibody (Sigma Monoclonal Mouse Anti-3-Actin (clone AC-15), cat. no. A5441) and secondary HRP-conjugated antibody (Promega anti-Mouse IgG (H+L) HRP, cat. no. W4021) and similar steps were taken for incubation, wash, detection and visualization steps as above. The data was analyzed using Alpha View software. The densitometric reading for each sample band was normalized to that of the corresponding actin band per lane.

IRAK4 [1] = target: T1, IRAK4 (Homo sapiens (Human), UniProt Q9NWZ3); experiment: IRAK4 Degradation HiBiT Assay; conditions: for Dmax: Jurkat
Target sequence in this assay (Q9NWZ3 whole entry): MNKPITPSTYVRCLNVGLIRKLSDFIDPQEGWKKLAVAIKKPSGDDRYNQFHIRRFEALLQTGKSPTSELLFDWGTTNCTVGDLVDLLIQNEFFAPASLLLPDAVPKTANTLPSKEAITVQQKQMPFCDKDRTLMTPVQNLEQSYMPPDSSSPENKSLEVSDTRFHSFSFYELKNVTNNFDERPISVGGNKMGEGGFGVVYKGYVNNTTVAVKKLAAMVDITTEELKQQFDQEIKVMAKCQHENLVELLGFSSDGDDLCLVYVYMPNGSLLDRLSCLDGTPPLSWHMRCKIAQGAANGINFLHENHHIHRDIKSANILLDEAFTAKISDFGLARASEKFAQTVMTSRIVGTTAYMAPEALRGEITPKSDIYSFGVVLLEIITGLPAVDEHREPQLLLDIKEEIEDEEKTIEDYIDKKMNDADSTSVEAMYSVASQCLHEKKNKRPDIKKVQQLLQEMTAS

IRAK4 [2] = target: T1, IRAK4; experiment: IRAK4 Biochemical HTRF Kinase Assay
Summary of the method: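 HTRF KinEASE STK S1 format measuring IRAK4 phosphorylation of biotinylated peptide; reaction solution of 5 μM STK-S1, 10 mM ATP, 10 mM MgCl2 added (stock, to 10 μl final), 90 min at ambient temperature, detection 60 min. IC50 from sixteen-point duplicate curves by non-linear regression.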
Target sequence in this assay (Q9NWZ3 whole entry, species assumed): as the sequence (Q9NWZ3 whole entry) above

IRAK1 = IRAK1 (Homo sapiens (Human), UniProt P51617); experiment: Western Assay for IRAK1 Degradation; type: cell-based; conditions: wild-type Jurkat cells, 4 hrs
Protocol: as §1, §2, §3

Ikaros = Ikaros (Homo sapiens (Human), UniProt Q13422+Q96SW2); experiment: Flow Cytometry-Based Assay for Ikaros Degradation; type: cell-based; conditions: 24 hours; for DC50: Jurkat cells (Clone E6-1); for Ikaros (CRBN neosubstrate) degradation, in words: Jurkat cells
Protocol: Flow Cytometry-Based Assay for Aiolos and Ikaros Degradation
Jurkat cells (Clone E6-1) were treated with DMSO or compound for 24 hours and then fixed and permeabilized using a Foxp3/Transcription Factor Fixation/Permeabilization Kit (eBioscience, cat. no. 00-5523). Cells were stained with fluorophore-conjugated antibodies against Ikaros (Biolegend 368414) and Aiolos (Biolegend, cat. no. 371106). An additional set of DMSO-treated cells was stained with fluorophore-conjugated isotype control antibodies (Biolegend, cat. no. 400254 and 400136). Stained cells were run on an Attune N×T Acoustic Focusing Flow Cytometer (Thermo-Fisher, cat. no. A29004), and data was analyzed using FlowJo (v10.5.3) and GraphPad Prism (v7.00) software. Single cells were gated, and the geometric mean fluorescence intensities (MFIs) of Ikaros and Aiolos were calculated. The MFI of the isotype control was calculated for each analyte and used to quantify background staining. Percent Ikaros or Aiolos degradation was calculated for each compound-treated sample using the following equation: % Degradation=[…]

[3] = read-out: IRAK4 HiBit Dmax, C-terminal HiBiT-tagged Jurkat cells, 4 hrs, Tables 2-3
[4] = read-out: IRAK4 HiBit DC50, C-terminal HiBiT-tagged Jurkat cells, 4 hrs, Tables 2-3
[5] = Table 3, VHL-targeting compounds, read-out: IRAK4 biochemical IC50
[6] = Table 2, CRBN-targeting compounds, read-out: IRAK4 biochemical IC50
[7] = read-out: Cellular IRAK4 HiBiT: Dmax, Table 4, HiBiT-tagged Jurkat cells, 4 hrs
[8] = read-out: Cellular IRAK4 HiBiT: Dmax, Table 5, multiple runs, HiBiT-tagged Jurkat cells, 4 hrs
[9] = read-out: Cellular IRAK4 HiBiT: DC50, Table 4, HiBiT-tagged Jurkat cells, 4 hrs
[10] = read-out: Cellular IRAK4 HiBiT: DC50, Table 5, multiple runs, HiBiT-tagged Jurkat cells, 4 hrs
[11] = Table 4, read-out: IRAK4 HTRF biochemical: IC50
[12] = Table 5, multiple runs, read-out: IRAK4 HTRF biochemical: IC50

GSPT1, sequence (P15170 whole entry): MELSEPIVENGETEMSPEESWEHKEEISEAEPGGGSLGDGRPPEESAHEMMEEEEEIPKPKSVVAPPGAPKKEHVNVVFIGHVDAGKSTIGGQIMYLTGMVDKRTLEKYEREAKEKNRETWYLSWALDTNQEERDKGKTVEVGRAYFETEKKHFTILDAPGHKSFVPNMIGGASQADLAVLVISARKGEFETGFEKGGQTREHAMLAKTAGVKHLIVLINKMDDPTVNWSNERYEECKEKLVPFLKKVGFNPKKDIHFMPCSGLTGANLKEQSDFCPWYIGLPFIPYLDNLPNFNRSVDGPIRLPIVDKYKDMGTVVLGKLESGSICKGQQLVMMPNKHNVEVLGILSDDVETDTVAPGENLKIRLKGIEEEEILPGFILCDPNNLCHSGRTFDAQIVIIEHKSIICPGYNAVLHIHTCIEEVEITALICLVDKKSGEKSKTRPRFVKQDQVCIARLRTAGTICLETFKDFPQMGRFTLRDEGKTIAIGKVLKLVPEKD
GSPT1, sequence (Q96SW2 whole entry): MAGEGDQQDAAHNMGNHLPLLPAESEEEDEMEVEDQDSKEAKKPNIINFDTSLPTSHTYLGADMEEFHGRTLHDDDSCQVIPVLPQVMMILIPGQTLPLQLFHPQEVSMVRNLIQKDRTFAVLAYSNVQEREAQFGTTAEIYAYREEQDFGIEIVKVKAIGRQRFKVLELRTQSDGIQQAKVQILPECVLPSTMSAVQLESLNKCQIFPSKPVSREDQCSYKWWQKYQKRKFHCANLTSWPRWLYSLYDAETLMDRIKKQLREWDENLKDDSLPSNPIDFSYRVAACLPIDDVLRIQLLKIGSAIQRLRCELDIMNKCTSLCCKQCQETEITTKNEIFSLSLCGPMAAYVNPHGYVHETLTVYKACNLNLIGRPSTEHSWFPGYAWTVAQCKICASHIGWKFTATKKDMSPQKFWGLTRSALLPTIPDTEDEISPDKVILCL
GSPT1, sequence (Q16531 whole entry partner): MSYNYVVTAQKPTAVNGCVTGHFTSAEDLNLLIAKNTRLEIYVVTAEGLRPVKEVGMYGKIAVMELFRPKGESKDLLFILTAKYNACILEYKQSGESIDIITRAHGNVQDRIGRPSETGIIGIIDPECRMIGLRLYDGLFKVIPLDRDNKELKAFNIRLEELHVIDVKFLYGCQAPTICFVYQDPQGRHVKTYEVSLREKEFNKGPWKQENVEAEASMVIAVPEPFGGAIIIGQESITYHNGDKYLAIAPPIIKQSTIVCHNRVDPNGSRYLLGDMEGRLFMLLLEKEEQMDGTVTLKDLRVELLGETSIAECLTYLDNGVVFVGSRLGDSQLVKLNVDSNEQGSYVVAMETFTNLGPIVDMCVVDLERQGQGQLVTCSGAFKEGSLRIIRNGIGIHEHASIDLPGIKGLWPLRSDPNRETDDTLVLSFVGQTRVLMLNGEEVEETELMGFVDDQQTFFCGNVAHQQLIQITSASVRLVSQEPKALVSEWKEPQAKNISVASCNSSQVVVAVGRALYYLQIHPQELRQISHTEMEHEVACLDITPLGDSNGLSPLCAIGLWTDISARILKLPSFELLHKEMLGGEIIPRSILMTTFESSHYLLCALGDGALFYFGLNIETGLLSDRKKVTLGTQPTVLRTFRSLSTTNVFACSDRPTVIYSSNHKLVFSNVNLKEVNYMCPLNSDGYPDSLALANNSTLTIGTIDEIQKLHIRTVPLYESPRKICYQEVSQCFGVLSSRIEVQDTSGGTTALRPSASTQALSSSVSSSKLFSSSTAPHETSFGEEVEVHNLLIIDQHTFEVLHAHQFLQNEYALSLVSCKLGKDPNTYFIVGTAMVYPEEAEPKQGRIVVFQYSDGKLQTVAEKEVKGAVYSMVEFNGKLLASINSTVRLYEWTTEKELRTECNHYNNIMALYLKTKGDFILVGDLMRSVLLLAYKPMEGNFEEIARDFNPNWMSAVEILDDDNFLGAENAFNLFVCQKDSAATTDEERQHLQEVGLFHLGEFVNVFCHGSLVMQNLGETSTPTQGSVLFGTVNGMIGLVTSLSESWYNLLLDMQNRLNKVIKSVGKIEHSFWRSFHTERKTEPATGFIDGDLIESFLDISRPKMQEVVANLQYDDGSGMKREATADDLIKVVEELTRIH
Ikaros, sequence (Q13422 whole entry): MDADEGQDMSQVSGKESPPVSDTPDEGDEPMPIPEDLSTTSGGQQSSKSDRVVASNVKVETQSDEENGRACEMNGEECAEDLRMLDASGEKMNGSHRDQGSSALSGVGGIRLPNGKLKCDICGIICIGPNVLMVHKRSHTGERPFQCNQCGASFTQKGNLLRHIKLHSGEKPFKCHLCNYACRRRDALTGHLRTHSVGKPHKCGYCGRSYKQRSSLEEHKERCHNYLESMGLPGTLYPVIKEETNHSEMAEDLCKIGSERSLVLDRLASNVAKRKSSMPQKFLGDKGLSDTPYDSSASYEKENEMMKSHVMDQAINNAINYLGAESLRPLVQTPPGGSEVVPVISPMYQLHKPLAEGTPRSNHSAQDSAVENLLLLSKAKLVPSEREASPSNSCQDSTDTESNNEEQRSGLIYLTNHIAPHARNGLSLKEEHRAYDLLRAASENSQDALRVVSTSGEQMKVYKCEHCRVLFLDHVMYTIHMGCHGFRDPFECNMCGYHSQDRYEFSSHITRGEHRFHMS
Ikaros, sequence (Q96SW2 whole entry): as the sequence (Q96SW2 whole entry) above
Ikaros, sequence (Q16531 whole entry partner): as the sequence (Q16531 whole entry partner) above
IRAK1, sequence (P51617 whole entry): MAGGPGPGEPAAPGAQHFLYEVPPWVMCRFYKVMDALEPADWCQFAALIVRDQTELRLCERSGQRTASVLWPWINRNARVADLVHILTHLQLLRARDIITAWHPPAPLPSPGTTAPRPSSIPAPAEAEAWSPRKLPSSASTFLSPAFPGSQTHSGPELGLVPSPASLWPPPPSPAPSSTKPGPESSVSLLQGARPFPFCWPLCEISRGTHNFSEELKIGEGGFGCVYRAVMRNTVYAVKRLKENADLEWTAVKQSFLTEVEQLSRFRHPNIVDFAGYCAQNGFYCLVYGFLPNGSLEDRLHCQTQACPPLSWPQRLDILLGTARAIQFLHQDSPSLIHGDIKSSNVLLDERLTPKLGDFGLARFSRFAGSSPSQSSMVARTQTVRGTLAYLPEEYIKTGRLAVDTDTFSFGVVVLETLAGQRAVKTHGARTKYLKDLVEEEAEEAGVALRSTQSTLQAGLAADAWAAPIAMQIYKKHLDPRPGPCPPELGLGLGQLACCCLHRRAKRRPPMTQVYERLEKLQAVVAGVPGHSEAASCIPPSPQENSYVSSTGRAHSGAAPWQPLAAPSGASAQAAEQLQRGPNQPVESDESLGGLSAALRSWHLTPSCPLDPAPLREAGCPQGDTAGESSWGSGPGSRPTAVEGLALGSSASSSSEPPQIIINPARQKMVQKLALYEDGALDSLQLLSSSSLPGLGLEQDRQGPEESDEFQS

Row | SMILES | DC50 (GSPT1) | Dmax (IRAK4 [1]; [3]) | DC50 (IRAK4 [1]; [4]) | IC50 (IRAK4 [2]; [5]) | DC50 (IRAK1) | DC50 (Ikaros) | IC50 (IRAK4 [2]; [6]) | Dmax (IRAK4 [1]; [7]) | Dmax (IRAK4 [1]; [8]) | DC50 (IRAK4 [1]; [9]) | DC50 (IRAK4 [1]; [10]) | IC50 (IRAK4 [2]; [11]) | IC50 (IRAK4 [2]; [12]) | Ikaros (CRBN neosubstrate) degradation, in words (Ikaros)
1 | CC[C@@H]1[C@H](F)C(=O)N[C@@H]1COc1ncc(C#CCN2CCC3(CC2)CCN(c2ncc(C(=O)N[C@H](C(=O)N4C[C@H](O)C[C@H]4C(=O)NCc4ccc(-c5scnc5C)cc4)C(C)(C)C)cn2)CC3)c2cc(C(N)=O)c(OC)cc12 [Comparative b1, reference compound] | > 10000 nM | 95% | 204 nM | 2.3 nM | > 10000 nM | > 5000 nM | – | – | – | – | – | – | – | –
2 | NC(=O)c1nn(-c2ccc(C(=O)NCCOCCOCCNc3cccc4c3C(=O)N(C3CCC(=O)NC3=O)C4=O)cc2)cc1NC(=O)c1coc(-c2ccnc(NCC(F)(F)F)c2)n1 (centres unmarked) [Comparative Compound a2, reference compound] | > 10000 nM | 88% | 26 nM | – | > 10000 nM | 20 nM | 1.2 nM | – | – | – | – | – | – | induced neosubstrate degradation; also recorded: degraded both Ikaros and Aiolos
3 | CC(C)Nc1cc(-c2ccc3cc(C#N)cnn23)ncc1-c1nnc(N2CCN(C(=O)C3CCN(Cc4ccc5c(c4)C(=O)N(C4CCC(=O)NC4=O)C5=O)CC3)CC2)s1 (centres unmarked) [Example 13, 7-(5-(5-(4-(1-((2-(2,6-dioxopiperidin-3-yl)-1,3-dioxoisoindolin-5-yl)methyl)piperidine-4-carbonyl)piperazin-1-yl)-1,3,4-thiadiazol-2-yl)-4-(isopropylamino)pyridin-2-yl)pyrrolo[1,2-b]pyridazine-3-carbonitrile] | > 10000 nM | 101% | 26 nM | – | > 10000 nM | > 5000 nM | 0.5 nM | 101% | 100% | 25.6 nM | 27 nM | 0.5 nM | 0.8 nM | none of Compounds 13, 24, 47, and 35 displayed neosubstrate degradation

Further lines, with some results ahead:

Row | DC50 (GSPT1) | Dmax (IRAK4 [1]; [3]) | DC50 (IRAK4 [1]; [4]) | IC50 (IRAK4 [2]; [5]) | DC50 (IRAK1) | DC50 (Ikaros) | IC50 (IRAK4 [2]; [6]) | Dmax (IRAK4 [1]; [7]) | Dmax (IRAK4 [1]; [8]) | DC50 (IRAK4 [1]; [9]) | DC50 (IRAK4 [1]; [10]) | IC50 (IRAK4 [2]; [11]) | IC50 (IRAK4 [2]; [12]) | SMILES | Ikaros (CRBN neosubstrate) degradation, in words (Ikaros)
4 | > 10000 nM | 102% | 327 nM | – | > 10000 nM | > 5000 nM | 0.6 nM | 102% | 112% | 327 nM | 310 nM | 0.6 nM | 0.6 nM | CC(C)Nc1cc(-c2ccc3cc(C#N)cnn23)ncc1-c1nnc(N2CCN(C(=O)C3CCN(CC4CCN(c5ccc(-c6nn(C7CCC(=O)NC7=O)c(=O)n6C)cc5)CC4)CC3)CC2)s1 (centres unmarked) [Example 24, 7-(5-(5-(4-(1-((1-(4-(1-(2,6-dioxopiperidin-3-yl)-4-methyl-5-oxo-4,5-dihydro-1H-1,2,4-triazol-3-yl)phenyl)piperidin-4-yl)methyl)piperidine-4-carbonyl)piperazin-1-yl)-1,3,4-thiadiazol-2-yl)-4-(isopropylamino)pyridin-2-yl)pyrrolo[1,2-b]pyridazine-3-carbonitrile] | none of Compounds 13, 24, 47, and 35 displayed neosubstrate degradation
5 | > 10000 nM | 118% | 144 nM | 7.3 nM | > 10000 nM | > 5000 nM | – | 118% | 118% | 144 nM | 144 nM | 7.3 nM | 5.8 nM | Cc1ncsc1-c1ccc(CNC(=O)[C@@H]2C[C@@H](O)CN2C(=O)[C@@H](NC(=O)C2(F)CC2)C(C)(C)C)c(OCCOCCC(=O)N2CCN(c3nnc(-c4cnc(-c5ccc6cc(C#N)cnn56)cc4NC(C)C)s3)CC2)c1 [Example 47, (2S,4R)—N-(2-(2-(3-(4-(5-(6-(3-cyanopyrrolo[1,2-b]pyridazin-7-yl)-4-(isopropylamino)pyridin-3-yl)-1,3,4-thiadiazol-2-yl)piperazin-1-yl)-3-oxopropoxy)ethoxy)-4-(4-methylthiazol-5-yl)benzyl)-1-((S)-2-(1-fluorocyclopropane-1-carboxamido)-3,3-dimethylbutanoyl)-4-hydroxypyrrolidine-2-carboxamide] | none of Compounds 13, 24, 47, and 35 displayed neosubstrate degradation
6 | > 10000 nM | 100% | 590 nM | 5.2 nM | > 10000 nM | > 5000 nM | – | 100% | 100% | 590 nM | 235 nM | 5.2 nM | 5.2 nM | Cc1ncsc1-c1ccc(CNC(=O)[C@@H]2C[C@@H](O)CN2C(=O)[C@@H](NC(=O)CCCC(=O)N2CCN(c3nnc(-c4cnc(-c5ccc6cc(C#N)cnn56)cc4NC(C)C)s3)CC2)C(C)(C)C)cc1 [Example 35, (2S,4R)-1-((S)-2-(5-(4-(5-(6-(3-cyanopyrrolo[1,2-b]pyridazin-7-yl)-4-(isopropylamino)pyridin-3-yl)-1,3,4-thiadiazol-2-yl)piperazin-1-yl)-5-oxopentanamido)-3,3-dimethylbutanoyl)-4-hydroxy-N-(4-(4-methylthiazol-5-yl)benzyl)pyrrolidine-2-carboxamide] | none of Compounds 13, 24, 47, and 35 displayed neosubstrate degradation
